Measured values: PubChem BioAssay (NCI)
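Growth conditions: 96-well plates. Treatment: test compound, 48 hours, 5 concentrations. Analysis: linear interpolation between bracketing concentrations; unreached endpoints set to highest concentration. GI50 is the concentration that inhibits growth by half. The concentration for full growth arrest is given as TGI.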

What was measured:
Assay in all cases: growth of human tumour cells (NCI), 48 h
MALME-3M melanoma = tested on: MALME-3M melanoma
BT-549 breast = tested on: BT-549 breast
MDA-MB-231 breast = tested on: MDA-MB-231 breast
NCI-H226 lung = tested on: NCI-H226 lung
OVCAR-5 ovarian = tested on: OVCAR-5 ovarian
SK-MEL-2 melanoma = tested on: SK-MEL-2 melanoma
SF-268 CNS = tested on: SF-268 CNS
SNB-19 CNS = tested on: SNB-19 CNS
SK-OV-3 ovarian = tested on: SK-OV-3 ovarian
CCRF-CEM leukemia = tested on: CCRF-CEM leukemia

Row | Compound | GI50 (MALME-3M melanoma) | TGI (MALME-3M melanoma) | GI50 (BT-549 breast) | TGI (BT-549 breast) | GI50 (MDA-MB-231 breast) | TGI (MDA-MB-231 breast) | GI50 (NCI-H226 lung) | TGI (NCI-H226 lung) | GI50 (OVCAR-5 ovarian) | TGI (OVCAR-5 ovarian) | GI50 (SK-MEL-2 melanoma) | TGI (SK-MEL-2 melanoma) | GI50 (SF-268 CNS) | TGI (SF-268 CNS) | GI50 (SNB-19 CNS) | TGI (SNB-19 CNS) | GI50 (SK-OV-3 ovarian) | TGI (SK-OV-3 ovarian) | GI50 (CCRF-CEM leukemia) | TGI (CCRF-CEM leukemia)
1 | Nc1n[nH]c2ccc([C@@H]3Nc4c(F)cc5[nH]ncc5c4[C@H]4C5CCC(C5)[C@@H]34)cc12 (some centres not stated) | 1.38 µM | > 57.9 µM | 0.374 µM | > 31.8 µM | 0.732 µM | > 47 µM | 0.629 µM | > 19.9 µM | 0.612 µM | > 55.7 µM | 0.598 µM | > 44.3 µM | 2.34 µM | > 47.5 µM | 0.515 µM | > 62.9 µM | 0.686 µM | > 58.2 µM | 0.332 µM | > 52.1 µM
2 | CN1CC[C@]23c4c5ccc(O)c4OC2c2[nH]ncc2C[C@H]3[C@H]1C5 (some centres not stated) | – | > 100 µM | – | > 100 µM | – | > 100 µM | – | > 100 µM | – | > 100 µM | – | > 100 µM | – | > 100 µM | – | > 100 µM | – | > 100 µM | – | > 100 µM
3 | Cn1c(CC(O)c2nc3ccccc3n2C)nc2ccccc21 (configuration not stated) | – | > 35.5 µM | – | > 63.2 µM | – | > 53.7 µM | – | > 72.3 µM | – | > 74.3 µM | – | > 58.5 µM | – | > 28.9 µM | – | > 87.7 µM | – | > 45.2 µM | – | 17.3 µM
4 | Cc1ccc(O)cc1Nc1ccnc2cc(-c3ccccn3)ccc12 | 3.59 µM | 8.32 µM | 4.9 µM | 10.3 µM | 1.25 µM | 5.6 µM | 3.88 µM | 11.9 µM | 2.98 µM | 9.21 µM | 3.86 µM | 8.03 µM | 1.71 µM | 5.88 µM | 4.54 µM | 18.3 µM | 1.98 µM | 6.3 µM | 4.86 µM | 15 µM
5 | Cc1nn2c(-c3nc4cc(Cl)c(Cl)cc4[nH]3)c(-c3ccc(F)cc3)nc2s1 | 3.23 µM | 15 µM | 8.57 µM | > 100 µM | 1.25 µM | 3.74 µM | 4.01 µM | 31.1 µM | 8.98 µM | > 100 µM | 14.2 µM | 94.5 µM | 3.15 µM | > 52.8 µM | 5.18 µM | > 76.8 µM | 1.98 µM | 4.46 µM | > 100 µM | > 100 µM
6 | CCc1c(C#N)c(SC(C(N)=O)c2ccccc2)nc(N2CCC(N)CC2)c1C#N (configuration not stated) | 14.6 µM | 28.1 µM | 13.6 µM | 27.3 µM | 14.7 µM | 28 µM | 13 µM | 27.7 µM | 15.5 µM | 31.7 µM | 14.7 µM | 28.5 µM | 14.2 µM | 29.2 µM | 14.9 µM | 28.5 µM | 15.7 µM | 29.8 µM | 15.2 µM | 36.8 µM
7 | CN(C)c1ccc2c(c1)OC(N)=C(C#N)C2c1ccc2c(c1)CCCN2C (configuration not stated) | 16.3 µM | 58.9 µM | 2.03 µM | 13.2 µM | 3.52 µM | > 100 µM | 5.44 µM | 71 µM | 59 µM | > 100 µM | 1.68 µM | 28.6 µM | 6.85 µM | > 100 µM | 4.26 µM | > 100 µM | 2.52 µM | 25.8 µM | 3.01 µM | 49.2 µM
8 | O=C(Nc1ccc(Br)cc1)Nc1cccc(Br)c1 | 8.69 µM | > 100 µM | > 100 µM | > 100 µM | 30.5 µM | > 100 µM | 47.1 µM | > 100 µM | > 100 µM | > 100 µM | 5.7 µM | > 100 µM | > 100 µM | > 100 µM | 11.1 µM | > 100 µM | 39.4 µM | > 100 µM | – | –
9 | O=C(O)Cn1ccc(=O)c2c([N+](=O)[O-])cccc21 | – | > 100 µM | – | > 100 µM | – | > 100 µM | – | > 100 µM | – | > 100 µM | – | > 100 µM | – | > 100 µM | – | > 100 µM | – | > 100 µM | – | > 100 µM
10 | O=C(Nc1nc2c(s1)CCc1c-2c(Br)n(Cc2ccccc2)c1Br)c1ccccc1 | 2.57 µM | 10.2 µM | 2.53 µM | 8.01 µM | 2.16 µM | 32.6 µM | 1.87 µM | 9.16 µM | 47.3 µM | > 100 µM | 3.47 µM | 19.6 µM | 6.03 µM | > 100 µM | 7.41 µM | > 100 µM | 3.23 µM | 16.3 µM | – | –
11 | O=[N+]([O-])c1ccc(/C=C\c2ccc3c(c2)OCO3)c([N+](=O)[O-])c1 | – | 46.5 µM | – | 34.2 µM | – | 33.2 µM | – | – | – | 35.5 µM | – | 35.3 µM | – | 58.5 µM | – | 33.6 µM | – | 35.4 µM | – | 33.7 µM
12 | CN1CCOCCOCCOc2ccccc2NC(=O)c2nc(cnc2N)-c2ccc(cc2)S1(=O)=O | > 100 µM | > 100 µM | 7.77 µM | > 100 µM | 32.4 µM | > 100 µM | 59.9 µM | > 100 µM | > 100 µM | > 100 µM | – | – | 11.1 µM | > 100 µM | 16.6 µM | > 100 µM | 7.12 µM | > 100 µM | – | –
13 | COc1cc2c3c(n(CCCN4CCSCC4)c(=O)c2cc1OC)-c1cc2c(cc1C3=O)OCO2 | 67.5 µM | > 100 µM | 56.7 µM | > 100 µM | 25.2 µM | 89.9 µM | 59.9 µM | > 100 µM | 53.6 µM | > 100 µM | 16.8 µM | 36.4 µM | 28.2 µM | > 100 µM | 53.8 µM | > 100 µM | 88.1 µM | > 100 µM | – | –
14 | COc1cc(OC)c(/C=C/C(=O)c2c(N)cc(OC)cc2OC)c(OC)c1 | – | – | 31.7 µM | > 100 µM | 1.35 µM | > 100 µM | 11.2 µM | > 100 µM | 2.51 µM | > 100 µM | 0.528 µM | > 100 µM | 0.609 µM | > 100 µM | 0.654 µM | > 100 µM | 0.767 µM | > 100 µM | 1.26 µM | > 100 µM
